Patent publication US20250041294A1, “Synergistic compositions for use in the treatment of cancer” (Sartar Therapeutics Oy, priority 2021, published 2025)
Read-outs that look alike come from different tables or passages of the source.

Assays:
Format in all cases: cell-based
GIST882 cell line = experiment: High throughput drug sensitivity and resistance test (CellTiter-Glo, 72 hours); settings: drug combined with BAY2666605 (40 nM) minus drug alone
Method: High throughput drug sensitivity and resistance test. […] In addition, same compounds were investigated together with anagrelide hydrochloride (100 nM) treatment in the PDE3A low expressing cell lines SA4 and GOT3, and with BAY2666605 (40 nM) in all PDE3A-positive cell lines GIST882, SA4 and GOT3. […] A cell viability was measured after 72 hours using CellTiter-Glo Cell Viability assay (Promega Inc.) and PHERAstar FS plate reader (BMG Labtech). The data were normalized to negative (0.01% dimethyl sulfoxide only) and positive (100 μmol/L benzethonium chloride) controls.
(§1) A four-parameter logistic dose-response curves were estimated by using the Marquardt-Levenberg algorithm and Breeze analysis platform. Drug responses to the test compounds were measured using the drug sensitivity score (DSS). Drug synergy partners, which were common in investigated cell lines were identified as following: DSS value of a single agent was subtracted from the DSS value of anagrelide-drug combination in single cell lines. […] The analysis was repeated by using BAY2666605 as a PDE3A modulator.

GOT3 cell line = experiment: as above; settings: for GOT3 cell line: DSS(combo (BAY2666605))-DSS(drug): drug combined with BAY2666605 (40 nM) minus drug alone
Method: (§2) Cell lines. PDE3A-positive (GIST882, SA4, and GOT3) and PDE3A-negative cell lines (93TT449, 94T778, LPS141, MLS17656-92, MLS402-91, and SW872) were cultured in RPMI Medium 1640 (Gibco) with 5-, 10- or 20% fetal bovine serum (FBS, gibco), 100 U/mL of penicillin, 100 […] and 0.03 mg/mL of L-glutamine (Pen Strep Glut, Gibco, 10378-016) in a humidified, 5% CO2 atmosphere at 37° C.
(§3) High throughput drug sensitivity and resistance test. A sensitivity and resistance of cancer cell lines to 528 compounds were investigated in 9 cell lines (GIST882, SA4, GOT3, 93TT449, 94T778, LPS141, MLS17656-92, MLS402-91, and SW872). In addition, same compounds were investigated together with anagrelide hydrochloride (100 nM) treatment in the PDE3A low expressing cell lines SA4 and GOT3, and with BAY2666605 (40 nM) in all PDE3A-positive cell lines GIST882, SA4 and GOT3. The compounds were dissolved in 100% dimethyl sulfoxide or water and plated in 10-fold dilutions covering a 10,000-fold concentration range on flat clear bottom 384-well microplates as described in detail earlier (Pulkka O P, et al 2019). A cell viability was measured after 72 hours using CellTiter-Glo Cell Viability assay (Promega Inc.) and PHERAstar FS plate reader (BMG Labtech). The data were normalized to negative (0.01% dimethyl sulfoxide only) and positive (100 μmol/L benzethonium chloride) controls.
as §1

SA4 cell line = experiment: as above; settings: for SA4 cell line: DSS(combo (BAY2666605))-DSS(drug): drug combined with BAY2666605 (40 nM) minus drug alone
Method: as §2, §3, §1

[1] = system: GIST882, GOT3 and SA4 cell lines; experiment: High throughput drug sensitivity and resistance test, average over cell lines (BAY2666605 combination); settings: for Average DSS (aDSS): BAY2666605 combination, average of GIST882, SA4 and GOT3, aDSS higher than 3.0 = synergy
Method: as §2, §3, §1

GOT3 and SA4 cell lines = experiment: High throughput drug sensitivity and resistance test, average over cell lines (anagrelide combination)
Method: as §2, §3, §1

[2] = with anagrelide (GOT3, SA4) or BAY2666605 (GIST882, GOT3, SA4)
[3] = anagrelide combination, average of SA4 and GOT3, aDSS higher than 3.0 = synergy
[4] = drug combined with anagrelide hydrochloride (100 nM) minus drug alone, GOT3
[5] = drug combined with anagrelide hydrochloride (100 nM) minus drug alone, SA4

SMILES	synergy in high-throughput screening (in words) [1, 2]	Average DSS (aDSS) (GOT3 and SA4 cell lines; [3])	GOT3 cell line: DSS(combo (anagrelide))-DSS(drug) (GOT3 cell line; [4])	SA4 cell line: DSS(combo (anagrelide))-DSS(drug) (SA4 cell line; [5])	further results
COc1ccc(C[C@H](NC(=O)[C@H](C)NC(=O)CN2CCOCC2)C(=O)N[C@@H](Cc2ccccc2)C(=O)C2(C)CO2)cc1 (stereo in doubt) [ONX-0914]	synergistic				GIST882 cell line: DSS(combo (BAY2666605))-DSS(drug) (GIST882 cell line): 8.4; GOT3 cell line: DSS(combo (BAY2666605))-DSS(drug) (GOT3 cell line; GOT3): 0.9; SA4 cell line: DSS(combo (BAY2666605))-DSS(drug) (SA4 cell line; SA4): 4.6; Average DSS (aDSS) [1]: 4.6
CC(C)[C@@H](CS(=O)(=O)C(C)C)N1C(=O)[C@@](C)(CC(=O)O)C[C@H](c2cccc(Cl)c2)[C@H]1c1ccc(Cl)cc1 [AMG-232]	synergistic	3.1	0	6.2	
CC(C)[C@H](C(=O)Nc1ccc(C(=O)NO)cc1)c1ccccc1 [AR-42]	synergistic	6.05	−0.8	12.9	
CN(C)CCCOc1ccc(-c2ccc3ncc4c(c3c2)n(C2CCOCC2)c(=O)n4C)cn1 [AZD0156]	synergistic				GIST882 cell line: DSS(combo (BAY2666605))-DSS(drug) (GIST882 cell line): 7.5; GOT3 cell line: DSS(combo (BAY2666605))-DSS(drug) (GOT3 cell line; GOT3): −1.2; SA4 cell line: DSS(combo (BAY2666605))-DSS(drug) (SA4 cell line; SA4): 3; Average DSS (aDSS) [1]: 3.1
CCN(CCO)CCCOc1ccc2c(Nc3cc(CC(=O)Nc4cccc(F)c4)[nH]n3)ncnc2c1 [AZD1152-HQPA]	synergistic	4.65	3.4	5.9	
N[C@@H]1CCCN(c2c(/C=C3\SC(=O)NC3=O)cccc2-c2ccccc2)C1 [AZD1208]	synergistic	3.7	0.3	7.1	
COc1ccc(-c2ccc3c(N4CCOC[C@@H]4C)nc(N4CCOC[C@@H]4C)nc3n2)cc1CO [AZD8055]	synergistic	3.7	1.5	5.9	
O=C1CN2Cc3c(ccc(Cl)c3Cl)N=C2N1 [Anagrelide, anagrelide]					DSS (drug sensitivity score) (GOT3 cell line; Anagrelide alone, GOT3): 9.2; IC50 (GOT3 cell line; Anagrelide alone, GOT3, cell viability 72 hours): 84.3 nM; DSS (drug sensitivity score) (SA4 cell line; Anagrelide alone, SA4): 15.4; IC50 (SA4 cell line; Anagrelide alone, SA4, cell viability 72 hours): 73.5 nM
C[C@@]1(C(=O)Nc2ccc(F)nc2)CCCN1c1nc(Nc2cc(C3CC3)n[nH]2)c2cccn2n1 [BMS-754807]	synergistic				GIST882 cell line: DSS(combo (BAY2666605))-DSS(drug) (GIST882 cell line): 0.7; GOT3 cell line: DSS(combo (BAY2666605))-DSS(drug) (GOT3 cell line; GOT3): 4.4; SA4 cell line: DSS(combo (BAY2666605))-DSS(drug) (SA4 cell line; SA4): 7.5; Average DSS (aDSS) [1]: 4.2
C=C(c1ccc(C(=O)O)cc1)c1cc2c(cc1C)C(C)(C)CCC2(C)C [Bexarotene, bexarotene]	synergistic				GIST882 cell line: DSS(combo (BAY2666605))-DSS(drug) (GIST882 cell line): 6.3; GOT3 cell line: DSS(combo (BAY2666605))-DSS(drug) (GOT3 cell line; GOT3): −1.1; SA4 cell line: DSS(combo (BAY2666605))-DSS(drug) (SA4 cell line; SA4): 6.4; Average DSS (aDSS) [1]: 3.9
CC(C)C[C@H](NC(=O)[C@H](Cc1ccccc1)NC(=O)c1cnccn1)B(O)O [Bortezomib, bortezomib]					GIST882 cell line: DSS(combo (BAY2666605))-DSS(drug) (GIST882 cell line): 1.7; GOT3 cell line: DSS(combo (BAY2666605))-DSS(drug) (GOT3 cell line; GOT3): 10.4; SA4 cell line: DSS(combo (BAY2666605))-DSS(drug) (SA4 cell line; SA4): 11.2; Average DSS (aDSS) [1]: 7.8
CO[C@H]1CC[C@H](N2C(=O)CNc3ncc(-c4ccc(C(C)(C)O)nc4)nc32)CC1 [CC-223]	synergistic	3.2	0.8	5.6	
COc1ccc(-c2nc(N3CCOCC3)c3sc(CN(C)c4ncc(C(=O)NO)cn4)cc3n2)cn1 [CUDC-907]	synergistic	5.4	0	10.8	
COc1c(OCCCN2CCOCC2)ccc2c1N=C(NC(=O)c1cnc(N)nc1)N1CCN=C21 [Copanlisib, copanlisib]	synergistic				GIST882 cell line: DSS(combo (BAY2666605))-DSS(drug) (GIST882 cell line): 6.8; GOT3 cell line: DSS(combo (BAY2666605))-DSS(drug) (GOT3 cell line; GOT3): −1.4; SA4 cell line: DSS(combo (BAY2666605))-DSS(drug) (SA4 cell line; SA4): 8.1; Average DSS (aDSS) [1]: 4.5
CC1(C)OCCn2c1nc1c(N3CCOCC3)nc(-c3cnc(N)nc3)nc12 [GDC-0084]	synergistic	3.1	2.3	3.9	
CC(C)Oc1ccc(C(=O)N[C@H](CNC(=O)CN(C)C)Cc2ccc(-c3cn4cccc([C@H](C)O)c4n3)cc2)cc1Cl [GSK923295]	synergistic	3.35	2.8	3.9	
Cn1cc(-c2cnn3c(N)c(Br)c([C@@H]4CCCNC4)nc23)cn1 [MK-8776]					Average DSS (aDSS) (GOT3 and SA4 cell lines): 3.2; GOT3 cell line: DSS(combo (anagrelide))-DSS(drug) (GOT3 cell line): 1.6; SA4 cell line: DSS(combo (anagrelide))-DSS(drug) (SA4 cell line): 4.8; synergy in high-throughput screening (in words) [1]: synergistic
CO[C@@H]1[C@H](N(C)C(=O)c2ccccc2)C[C@H]2O[C@]1(C)n1c3ccccc3c3c4c(c5c6ccccc6n2c5c31)C(=O)NC4 [Midostaurin, midostaurin]		3.7	2.3	5.1	
CNC(=O)c1nn(C)c2c1C(C)(C)Cc1cnc(Nc3ccc(N4CCN(C)CC4)cc3)nc1-2 [Milciclib, milciclib]	synergistic	3.75	3.6	3.9	
Nc1nccc(-c2c(-c3ccc(F)cc3)ncn2C2CCCCC2)n1 [PF-670462]	synergistic	3.65	0.2	7.1	
C/C=C1\NC(=O)[C@H]2CSSCC/C=C/[C@H](CC(=O)N[C@H](C(C)C)C(=O)N2)OC(=O)[C@H](C(C)C)NC1=O [Romidepsin, romidepsin]			1.4	6.3	
CN(C)C[C@@H]1CCn2cc(c3ccccc32)C2=C(C(=O)NC2=O)c2cn(c3ccccc23)CCO1 [Ruboxistaurin]	synergistic	3.3	1.8	4.8	
CC(C)(C)C[C@@H]1N[C@@H](C(=O)N[C@H]2CC[C@H](O)CC2)[C@H](c2cccc(Cl)c2F)[C@]12C(=O)Nc1cc(Cl)ccc12 [SAR405838]	synergistic	3.95	0.1	7.8	
Nc1nc2cc(-c3ccc4ncc(C(=O)N5CCOCC5)n4c3)ccc2o1 [Serabelisib, serabelisib]	synergistic	3.85	1.9	5.8	
Cn1ncc(Cl)c1-c1cc(C(=O)N[C@H](CN)Cc2ccc(F)c(F)c2)oc1Cl [Uprosertib, uprosertib]	synergistic	3.6	1.8	5.4	
CNC(=O)c1ccccc1Nc1cc(Nc2ccc(N3CCOCC3)cc2OC)ncc1C(F)(F)F [VS-4718]	synergistic	4.55	3.8	5.3	
